According to patent publication US5602259A, “Method for producing 4-hydroxy-5-methyl-3[2H]-furanone and uses of same” (priority 1993, dated 1997):

How the values were obtained:
murine melanoma cells = test: Inhibitive effect on melanin formation in melanoma cells; type: cell-based; details: Mus musculus, 48 h, 37° C., by observing the color of the cells, read-out: concentration with inhibitive effect on melanin formation within melanoma cells
Protocol: (§1) 4-hydroxy-5-methyl-3[2H]-furanone obtained by the method of the invention has an excellent activity to inhibit melanin formation.
To a T-shaped flask containing […] of Eagle's medium containing 10% fetal calf essential medium was added murine melanoma cells in an amount of 5×10^4 cells/30 ml. […] After the cultivation, the cells were collected and examined for melanin formation of the cells by observing the color of the cells.

in vitro = type: cell-based; details: fibroblast cells
Description: as §1

tyrosinase = target: T1, tyrosinase (Agaricus bisporus, UniProt C7FF04); test: Tyrosinase-inhibiting action; type: biochemical; details: pH 6.8, 37° C., 10 minutes, tyrosine substrate
T1 construct: purchased SIGMA
Protocol: As an enzyme, tyrosinase purchased from SIGMA was used. […] Water were used to dilute the test compounds. As a control, 0.9 ml of 1:1 mixture of ethanol and water was used. […] The test tube was quickly cooled in an ice water bath to stop the reaction, and the absorbance was measured at 475 nm. The tyrosinase-inhibitory activities of the test compounds were calculated by using the following equation: [formula] From the inhibitions(%) of a series of dilutions of test compounds, IC50, i.e., the concentration of test compound which inhibit tyrosinase by 50% was calculated for each test compound.

[1] = Anti-oxidation activity (1): inhibition of autonomous oxidation of linolenic acid, absorbance at 500 nm; type: biochemical; details: for concentration showing 90% inhibition of autonomous oxidation of linolenic acid: pH 7.4, 37° C., 24 hours, for the extract: concentration of 4-hydroxy-5-methyl-3[2H]-furanone
Protocol: (§2) An anti-oxidation activity of 4-hydroxy-5-methyl-3[2H]-furanone was examined as follows:
To 1.0 ml of 0.2M potassium phosphate buffer(pH 7.4) containing 2 mg/ml of linolenic acid and 10 mg/ml of Tween-20 was added the extract obtained from Lichrosorb RP-18 column in Example 1, which contains a serial concentrations of 10~2000 ppm of 4-hydroxy-5-methyl-3[2H]-furanone. […] The resulting mixture was allowed at 37° C. for 24 hours. 0.1 ml of the reaction mixture was taken and diluted with 9.7 ml of ethanol. 0.1 ml of 30% ammonium thiocyanide and 0.1 ml of a mixture of 5% ferrous ammonium sulfate and 3.5% […] were added, and 3 minutes later, an absorbance at 500 nm was measured to evaluate an automatic oxidation of fatty acid.

[2] = Anti-oxidation activity (2): prevention of oxidation of unsaturated fatty acid over time (FIG. 5); type: biochemical; details: 200 ppm, 37° C., pH 7.4
Protocol: as §2
1.0 ml of 0.2M potassium phosphate buffer(pH 7.4) containing 2mg/ml of linolenic acid, 10 mg/ml of Tween-20 and 200 ppm of L-ascorbic acid, tocopherol or 4-hydroxy-5-methyl-3[2H]-furanone was allowed to stand at 37° C. for 24 hours. For a control, 1.0 ml of 0.2M potassium phosphate buffer(pH 7.4) containing 2 mg/ml of linolenic acid and 10 mg/ml of Tween-20 was employed.
The same procedure as that of Experimental Example 2 was carried out to evaluate the anti-oxidation activity of test compounds.
In FIG. 5, the longitudinal axis indicates an amount of fatty peroxide represented by an absorbance at 500 nm and the horizontal axis indicates the time in days.

T1 sequence (C7FF04 2-392 limits assumed): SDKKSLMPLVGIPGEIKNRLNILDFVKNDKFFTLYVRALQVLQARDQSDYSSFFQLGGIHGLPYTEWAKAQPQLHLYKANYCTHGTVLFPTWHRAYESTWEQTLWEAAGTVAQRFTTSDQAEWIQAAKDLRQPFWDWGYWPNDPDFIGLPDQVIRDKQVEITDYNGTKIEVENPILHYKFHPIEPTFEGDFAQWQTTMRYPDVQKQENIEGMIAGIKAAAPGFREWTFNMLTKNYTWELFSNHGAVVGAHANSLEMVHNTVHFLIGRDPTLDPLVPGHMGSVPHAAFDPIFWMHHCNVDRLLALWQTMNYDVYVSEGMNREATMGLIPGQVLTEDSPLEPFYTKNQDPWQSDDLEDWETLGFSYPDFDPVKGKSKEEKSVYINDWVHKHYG

Structure (SMILES) | minimal effective concentration (murine melanoma cells) [µg/mL] | MCC at 48 h (in vitro) [µg/mL] | IC50 (tyrosinase) [µM] | anti-oxidation activity (in words) ([1]; compared with maltol, kojic acid or L-ascorbic acid) | prevention of oxidation of unsaturated fatty acid (in words) [2] | concentration showing 90% inhibition of autonomous oxidation of linolenic acid [1] [ppm]
CC1=C(O)C(=O)CO1 [4-hydroxy-5-methyl-3[2H]-furanone] | 10 to 20 | > 500 | 52.6 | superior over maltol, kojic acid or L-ascorbic acid | can prevent more efficiently the oxidation of unsaturated fatty acid than the same amount of L-ascorbic acid or α-tocopherol | –
O=C1O[C@H]([C@@H](O)CO)C(O)=C1O [ascorbic acid, L-ascorbic acid] | – | 50 | – | – | – | –
O=c1cc(CO)occ1O [kojic acid] | – | > 500 | – | – | – | 600
Cc1occc(=O)c1O [maltol] | – | – | – | – | – | 460
